The values below come from PubChem BioAssay AID328 (DTP/NCI, 2004).

Values joined by “and” are separate entries in the source; they are usually repeats but may differ in a detail not shown here. Equal entries are not always repeated. Inconclusive results and toxic doses are left out.

In the experiment the test system is BDF1 mice, P388 leukemia ip, median survival T/C. Put plainly: NCI In Vivo Anticancer Drug Screen. Data for tumor model P388 Leukemia (intraperitoneal) in B6D2F1 (BDF1) mice. The conditions noted are these: endpoint: median survival time, higher = longer survival. The essentials:
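Transplantable tumour in mice; compound vs vehicle dosing; survival scored; ratio of treated to control reported.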

[1] abbreviates: dose: 50.0 mg/kg/injection, schedule: Q01DX009 (ip), vehicle: Klucel (hydroxypropylcellulose) (HPC).
Where [2] appears, read: dose: 100.0 mg/kg/injection, schedule: Q01DX009 (ip), vehicle: Klucel (hydroxypropylcellulose) (HPC).
[3] abbreviates: dose: 200.0 mg/kg/injection, schedule: Q01DX009 (ip), vehicle: Klucel (hydroxypropylcellulose) (HPC).
Setting [4] is: dose: 50.0 mg/kg/injection, schedule: Q04DX002 (ip), vehicle: saline with Tween-80.
Where [5] appears, read: dose: 100.0 mg/kg/injection, schedule: Q04DX002 (ip), vehicle: saline with Tween-80.
[6] abbreviates: dose: 200.0 mg/kg/injection, schedule: Q04DX002 (ip), vehicle: saline with Tween-80.
The mark [7] stands for this setting: dose: 25.0 mg/kg/injection, schedule: Q01DX009 (ip), vehicle: saline with Tween-80.
[8] abbreviates: dose: 50.0 mg/kg/injection, schedule: Q01DX009 (ip), vehicle: saline with Tween-80.
[9] abbreviates: dose: 100.0 mg/kg/injection, schedule: Q01DX009 (ip), vehicle: saline with Tween-80.
The mark [10] stands for this setting: dose: 200.0 mg/kg/injection, schedule: Q01DX009 (ip), vehicle: saline with Tween-80.
The mark [11] stands for this setting: dose: 400.0 mg/kg/injection, schedule: Q01DX009 (ip), vehicle: saline with Tween-80.
[12] abbreviates: dose: 100.0 mg/kg/injection, schedule: Q04DX003 (ip), vehicle: saline.
Where [13] appears, read: dose: 200.0 mg/kg/injection, schedule: Q04DX003 (ip), vehicle: saline.
[14] abbreviates: dose: 400.0 mg/kg/injection, schedule: Q04DX003 (ip), vehicle: saline.
[15] abbreviates: dose: 100.0 mg/kg/injection, schedule: Q04DX003 (ip), vehicle: saline sonified.
Setting [16] is: dose: 200.0 mg/kg/injection, schedule: Q04DX003 (ip), vehicle: saline sonified.
The mark [17] stands for this setting: dose: 100.0 mg/kg/injection, schedule: Q04DX003 (ip), vehicle: Klucel (hydroxypropylcellulose) (HPC).
Where [18] appears, read: dose: 200.0 mg/kg/injection, schedule: Q04DX003 (ip), vehicle: Klucel (hydroxypropylcellulose) (HPC).
Setting [19] is: dose: 400.0 mg/kg/injection, schedule: Q04DX003 (ip), vehicle: Klucel (hydroxypropylcellulose) (HPC).
[20] abbreviates: dose: 100.0 mg/kg/injection, schedule: Q04DX003 (ip), vehicle: saline with Tween-80.
Where [21] appears, read: dose: 200.0 mg/kg/injection, schedule: Q04DX003 (ip), vehicle: saline with Tween-80.
[22] abbreviates: dose: 400.0 mg/kg/injection, schedule: Q04DX003 (ip), vehicle: saline with Tween-80.

Turning to `NC(=S)N=Nc1c(O)[nH]c2ccccc12`, the T/C was 119 % of control under setting [1], 118 % of control under setting [2] and 115 % of control under setting [3].
As for `CCCC/C(C=O)=C\NC(=O)Nc1ccccc1`, the T/C was 100 % of control under setting [4], 90 % of control under setting [5] and 98 % of control under setting [6].
As for `S=c1[nH]c2nccnc2[nH]1`, the T/C is, setting by setting: under setting [7], 95 % of control; under setting [8], 100 % of control; under setting [9], 95 % of control; under setting [10], 95 % of control; under setting [11], 104 % of control.
For `CCOC(=O)/C=C(/CC(=O)OCC)OCC`, the T/C was 106 % of control (dose: 25.0 mg/kg/injection, schedule: Q04DX003 (ip), vehicle: saline); 100 % of control (dose: 50.0 mg/kg/injection, schedule: Q04DX003 (ip), vehicle: saline); 115 % of control under setting [12]; 106 % of control under setting [13]; 112 % of control under setting [14].
For the molecule `ClC1=C(Cl)[C@@]2(Cl)[C@H]3[C@H]4C[C@H]([C@@H]5O[C@H]45)[C@H]3[C@@]1(Cl)C2(Cl)Cl`, the T/C was 91 % of control (dose: 3.12 mg/kg/injection, schedule: Q01DX009 (ip), vehicle: Klucel (hydroxypropylcellulose) (HPC)) and 87 % of control (dose: 6.25 mg/kg/injection, schedule: Q01DX009 (ip), vehicle: Klucel (hydroxypropylcellulose) (HPC)).
For `CCCCCCCCCCCCSCCSCCSCCCCCCCCCCCC`, the T/C reads like this: (dose: 100.0 mg/kg/injection, schedule: Q01DX001 (ip), vehicle: saline with Tween-80) 95 % of control; (dose: 200.0 mg/kg/injection, schedule: Q01DX001 (ip), vehicle: saline with Tween-80) 95 % of control; (dose: 400.0 mg/kg/injection, schedule: Q01DX001 (ip), vehicle: saline with Tween-80) 90 % of control.
Turning to `CC(=N/NC(=S)NCCN1CCCCC1)/C(C)=N\NC(=S)NCCN1CCCCC1`, the T/C (dose: 0.78 mg/kg/injection, schedule: Q01DX009 (ip), vehicle: saline) is 90 % of control; the T/C (dose: 1.56 mg/kg/injection, schedule: Q01DX009 (ip), vehicle: saline) was 98 % of control; the T/C (dose: 3.13 mg/kg/injection, schedule: Q01DX009 (ip), vehicle: saline) was 98 % of control and 121 % of control; the T/C (dose: 6.25 mg/kg/injection, schedule: Q01DX009 (ip), vehicle: saline) was 105 % of control and 109 % of control; the T/C (dose: 12.5 mg/kg/injection, schedule: Q01DX009 (ip), vehicle: saline) was 103 % of control.
On to `CC(=O)Oc1ccc(N2C(=O)C3C(C2=O)C2c4ccccc4C3C3CCCCN32)cc1` (stereo not given) (tested in a mixture with another compound), for which the T/C reads like this: (dose: 6.25 mg/kg/injection, schedule: Q04DX003 (ip), vehicle: water) 97 % of control; (dose: 12.5 mg/kg/injection, schedule: Q04DX003 (ip), vehicle: water) 101 % of control; (dose: 25.0 mg/kg/injection, schedule: Q04DX003 (ip), vehicle: water) 99 % of control; (dose: 50.0 mg/kg/injection, schedule: Q04DX003 (ip), vehicle: water) 101 % of control; (dose: 100.0 mg/kg/injection, schedule: Q04DX003 (ip), vehicle: water) 91 % of control.
Take `O=c1ccc2c([nH]1)CCCCC2`: the T/C by setting is: (dose: 50.0 mg/kg/injection, schedule: Q04DX003 (ip), vehicle: saline sonified) 104 % of control; under setting [15], 100 % of control; under setting [16], 95 % of control.
As to `CC(C)(O)c1cccc(F)c1`, the T/C reads like this: under setting [8], 100 % of control; under setting [9], 104 % of control; under setting [10], 109 % of control.
With `CCOC(=O)C(C#N)C(C)CC` (stereo not given), the T/C reads like this: (dose: 25.0 mg/kg/injection, schedule: Q01DX009 (ip), vehicle: Klucel (hydroxypropylcellulose) (HPC)) 90 % of control; under setting [1], 104 % of control; under setting [2], 100 % of control; under setting [17], 87 % of control; under setting [3], 95 % of control; under setting [18], 104 % of control. For the same molecule, the T/C by setting is: (dose: 400.0 mg/kg/injection, schedule: Q01DX009 (ip), vehicle: Klucel (hydroxypropylcellulose) (HPC)) 90 % of control; under setting [19], 95 % of control.
For `O=C(O)C(Br)C(Br)c1ccccc1` (stereo not given), the T/C under setting [20] is 100 % of control, the T/C under setting [21] is 100 % of control and the T/C under setting [22] was 109 % of control.
As to `CC(C)(C)CSc1ccccc1SCC(C)(C)C`, the T/C is 107 % of control under setting [4], 98 % of control under setting [5] and 93 % of control under setting [6].
`O=S1(=O)C(Cc2ccccc2)CCCN1c1ccccc1` (stereo not given): the T/C reads like this: under setting [5], 104 % of control; under setting [6], 104 % of control; (dose: 400.0 mg/kg/injection, schedule: Q04DX002 (ip), vehicle: saline with Tween-80) 102 % of control.
For the molecule `CC(=O)NCCC(C)C`, the T/C is 104 % of control under setting [12], 113 % of control under setting [13] and 109 % of control under setting [14].
Turning to `CCN1c2ccccc2CC(C#N)(CCN(C)C)c2ccccc21` (stereo not given), the T/C under setting [9] is 100 % of control.
In the case of `CN1C(=O)NC(C)(c2cccs2)C1=O` (stereo not given), the T/C was 96 % of control (dose: 50.0 mg/kg/injection, schedule: Q04DX003 (ip), vehicle: saline with Tween-80); 101 % of control under setting [20]; 100 % of control under setting [21]; 94 % of control under setting [22].
As to `Cc1ccc(NC(=O)N(CCCl)N=O)cc1NC(=O)N(CCCl)N=O`, the T/C by setting is: (dose: 1.25 mg/kg/injection, schedule: Q04DX003 (ip), vehicle: other) 179 % of control; (dose: 2.5 mg/kg/injection, schedule: Q04DX003 (ip), vehicle: other) 175 % of control; (dose: 3.12 mg/kg/injection, schedule: Q01DX009 (ip), vehicle: other) 204 % of control; (dose: 3.13 mg/kg/injection, schedule: Q01DX009 (ip), vehicle: saline with Tween-80) 185 % of control; (dose: 5.0 mg/kg/injection, schedule: Q04DX003 (ip), vehicle: other) 200 % of control; (dose: 6.25 mg/kg/injection, schedule: Q01DX009 (ip), vehicle: other) 207 % of control. The T/C is 221 % of control (dose: 6.25 mg/kg/injection, schedule: Q01DX009 (ip), vehicle: saline with Tween-80); 166 % of control (dose: 6.25 mg/kg/injection, schedule: Q04DX003 (ip), vehicle: other); 221 % of control (dose: 12.5 mg/kg/injection, schedule: Q01DX009 (ip), vehicle: saline with Tween-80); 113 % of control under setting [7]; 177 % of control (dose: 25.0 mg/kg/injection, schedule: Q04DX003 (ip), vehicle: other).
With `COc1ccc(CC2c3cc(OC)c(OC)cc3CCN2C(=O)OCc2ccccc2)cc1OC` (stereo not given), the T/C was 91 % of control (dose: 50.0 mg/kg/injection, schedule: Q01DX005 (ip), vehicle: saline with Tween-80); 93 % of control (dose: 100.0 mg/kg/injection, schedule: Q01DX005 (ip), vehicle: saline with Tween-80); 92 % of control (dose: 200.0 mg/kg/injection, schedule: Q01DX005 (ip), vehicle: saline with Tween-80).
As for `Cc1c(Cl)c(Cl)c(C)c(Cl)c1Cl`, the T/C was 94 % of control under setting [17], 100 % of control under setting [18] and 100 % of control under setting [19].
With `c1ccc2c(c1)CC1C2ON2CCc3ccccc3C12` (stereo not given), the T/C under setting [9] is 91 % of control, the T/C under setting [10] is 97 % of control and the T/C under setting [11] is 109 % of control.
Take `O=C(c1ccccc1)C1OC1c1ccc([N+](=O)[O-])cc1` (stereo not given): the T/C under setting [15] was 104 % of control; the T/C under setting [16] is 100 % of control; the T/C (dose: 400.0 mg/kg/injection, schedule: Q04DX003 (ip), vehicle: saline sonified) was 100 % of control.
